Values belong to the compound of their own block, whether it stands above or below them.
Key:
Format in all cases: functional, cell-based
Settings in all cases: oocyte
[1] = target: T1, Solute carrier organic anion transporter family member 1A1 (Rattus norvegicus, UniProt P46720); test: TP_TRANSPORTER: inhibition of Gadoxetate uptake (Gadoxetate: 100 uM, Rifampicin: 100 uM) in Xenopus laevis oocytes
T1 sequence (P46720 whole entry): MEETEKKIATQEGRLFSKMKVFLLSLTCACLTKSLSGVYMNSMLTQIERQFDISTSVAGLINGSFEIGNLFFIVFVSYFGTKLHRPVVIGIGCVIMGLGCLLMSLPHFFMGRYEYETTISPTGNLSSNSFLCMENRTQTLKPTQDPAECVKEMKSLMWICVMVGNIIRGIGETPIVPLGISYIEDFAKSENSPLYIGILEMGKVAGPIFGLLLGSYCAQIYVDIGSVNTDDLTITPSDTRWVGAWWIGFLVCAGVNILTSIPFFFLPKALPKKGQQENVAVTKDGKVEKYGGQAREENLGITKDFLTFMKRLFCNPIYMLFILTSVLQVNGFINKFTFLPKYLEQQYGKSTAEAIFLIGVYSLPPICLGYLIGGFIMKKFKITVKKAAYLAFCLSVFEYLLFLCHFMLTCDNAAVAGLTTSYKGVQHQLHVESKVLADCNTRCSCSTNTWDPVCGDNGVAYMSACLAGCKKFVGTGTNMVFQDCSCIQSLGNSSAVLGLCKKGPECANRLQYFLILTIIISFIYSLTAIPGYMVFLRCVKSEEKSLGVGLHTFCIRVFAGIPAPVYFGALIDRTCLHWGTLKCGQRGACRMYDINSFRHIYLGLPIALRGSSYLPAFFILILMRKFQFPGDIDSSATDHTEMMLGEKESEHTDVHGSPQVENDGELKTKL

[2] = target: T1, Solute carrier organic anion transporter family member 1A1; test: TP_TRANSPORTER: uptake in Xenopus laevis oocytes
[3] = target: T1, Solute carrier organic anion transporter family member 1A1; test: TP_TRANSPORTER: inhibition of Gadoxetate uptake (Gadoxetate: 100 uM, BSP: 10 uM) in Xenopus laevis oocytes
[4] = target: T1, Solute carrier organic anion transporter family member 1A1; test: TP_TRANSPORTER: inhibition of Gadoxetate uptake (Gadoxetate: 100 uM, Rifamycin SV: 100 uM) in Xenopus laevis oocytes

Compound: CO[C@H]1/C=C/O[C@@]2(C)Oc3c(C)c(O)c4c(O)c(c(/C=N/N5CCN(C)CC5)c(O)c4c3C2=O)NC(=O)/C(C)=C\C=C\[C@H](C)[C@H](O)[C@@H](C)[C@@H](O)[C@@H](C)[C@H](OC(C)=O)[C@@H]1C [RIFAMPIN]
Activity [1]: inhibitor [(at a rough estimate) 50 % of control]

Km [2]: 3.3 mM
Compound: GADOXETATE

Compound: O=C1OC(c2ccc(O)c(S(=O)(=O)[O-])c2)(c2ccc(O)c(S(=O)(=O)[O-])c2)c2c(Br)c(Br)c(Br)c(Br)c21.[Na+].[Na+] [SULFOBROMOPHTHALEIN SODIUM]
Activity [3]: inhibitor [(at a rough estimate) 55 % of control]

Compound: CO[C@H]1/C=C/O[C@@]2(C)Oc3c(C)c(O)c4c(O)c(cc(O)c4c3C2=O)NC(=O)/C(C)=C\C=C\[C@H](C)[C@H](O)[C@@H](C)[C@@H](O)[C@@H](C)[C@H](OC(C)=O)[C@@H]1C [RIFAMYCIN]
Activity [4]: inhibitor [(at a rough estimate) <5 % of control]

Reference: ChEMBL document CHEMBL2073792, “Hepatic uptake of the magnetic resonance imaging contrast agent gadoxetate by the organic anion transporting polypeptide Oatp1” (J Pharmacol Exp Ther, 1999)
